Data set [1] addresses T1, mouse CCK2R (Mus musculus, UniProt P56481).
T1 sequence (P56481 1-453): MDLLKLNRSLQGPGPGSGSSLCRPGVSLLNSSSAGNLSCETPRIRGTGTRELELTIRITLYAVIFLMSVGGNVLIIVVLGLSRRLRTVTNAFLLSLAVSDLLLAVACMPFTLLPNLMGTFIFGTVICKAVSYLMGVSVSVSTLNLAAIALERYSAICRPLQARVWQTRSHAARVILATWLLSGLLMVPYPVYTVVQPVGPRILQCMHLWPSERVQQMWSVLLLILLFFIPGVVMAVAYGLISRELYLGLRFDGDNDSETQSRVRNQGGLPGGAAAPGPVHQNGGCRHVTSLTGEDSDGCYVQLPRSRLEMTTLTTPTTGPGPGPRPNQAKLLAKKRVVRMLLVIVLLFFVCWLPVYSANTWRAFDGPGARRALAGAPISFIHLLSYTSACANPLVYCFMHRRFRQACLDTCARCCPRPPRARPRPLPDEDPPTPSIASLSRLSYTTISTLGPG
Description: Inositol-1-phosphate (IP1) accumulation assay (HTRF) in HEK293 cells transiently expressing CCK2R. Conditions: for IP1 formation (fold difference over baseline): positive control, n = 3-4; for Emax: HEK293, read-out: Maximum efficacy (Emax) at the CCK2R; for Antagonism of CCK-8-induced IP1 formation: antagonist 500 nM, preincubated 30 min at 37 °C, CCK-8 10 nM, Fig. S1b, n = 3-5. In general terms: In TR-FRET formats the signal depends on donor and acceptor labels being close together.
Description: Human embryonic kidney (HEK293) cells (Ref.[31]) were maintained in a fresh Dulbecco’s modified Eagle’s medium supplemented with 10% fetal bovine serum, 100 U/mL penicillin, and 100 µg/mL streptomycin in a humidified atmosphere of 5% CO2 at 37 °C. 2 mL of cell suspension was poured into each well of a 6-well plate and incubated overnight at 37 °C. After reaching to a confluency of 70–80%, the cells were transfected with a plasmid encoding EGFP-tagged CCK2R using the jetPRIME transfection reagent according to manufacturer’s instructions (Polyplus-transfection, USA).
The receptor-mediated activation of Gq-dependent signaling was measured using a homogenous time-resolved fluorescence (HTRF) based inositol-1-phosphate (IP1) assay kit (Cisbio, France). Approximately 3-6 × 10^4 HEK293 cells expressing the CCK2R were seeded into each well of a 96- or 384-well plate and incubated overnight at 37 °C. […] Antagonists YM-022 and LY225910 (500 nM or 1 µM, both Sigma -Aldrich, Austria) were preincubated at 37 °C for 30 min. After adding IP1-d2 conjugate and anti-IP1 Eu Cryptate according to manufacturers’ instructions, the plate was incubated at room temperature for 3 h. The HTRF measurement was carried out using the FlexStation 3 multi-mode microplate reader with excitation at 330 nm and emissions at 620 and 665 nm.
All experiments were performed in triplicate, analyzed using the GraphPad prism software (GraphPad Software, USA) and expressed as mean ± SD (standard deviation). Pharmacological data of concentration response curves were normalized to the maximal response of CCK-8 detected at the highest concentration. […] Single concentration efficacy data were normalized to baseline (assay buffer) and data were expressed as IP1 formation (fold difference over baseline).

Data set [2] has as its system HEK293 cells. Description: Cell viability assay (Cell Counting Kit-8). Conditions: 2 h incubation. The procedure:
Effect on cell viability of plant extract was measured against the HEK293 cell line using the Cell Counting Kit-8 (VitaScientific, USA). Briefly, 100 µL of medium containing 1 × 10^4 cells was seeded in each well of a 96-well plate and incubated at 37 °C for 24 h. […] Finally, 10 µL of the kit reagent (final concentration of 10%, v/v) was added into each well and incubated at 37 °C for 3 h. Absorbance was measured at 450 nm using the FlexStation 3 multi-mode microplate reader (Molecular Devices, USA). Triton X-100 and medium were used as positive and negative controls, respectively. The cell viability (CV) percentage was calculated using the following equation: CV (%) = (AS/AC) × 100, whereas AS and AC are related to the absorbance of sample and negative control at 450 nm.
Background: Formazan colour is commonly taken as a measure of viable cells.

The target of data set [3] is T2, mouse cholecystokinin-2 receptor, EGFP-tagged (mouse) (UniProt P56481).
T2 sequence: T1 sequence (P56481 1-453)

Data set [4] concerns the target T2, mouse cholecystokinin-2 receptor, EGFP-tagged (mouse). The source holds these as a separate data set.

Like-named read-outs stand apart in the source and are kept apart here. Where a SMILES comes first, the peptide text is derived from it. Bridges are numbered along the chain shown (N, C = ends).

Sequence of cholecystokinin-8 (P06307 whole entry, looked up): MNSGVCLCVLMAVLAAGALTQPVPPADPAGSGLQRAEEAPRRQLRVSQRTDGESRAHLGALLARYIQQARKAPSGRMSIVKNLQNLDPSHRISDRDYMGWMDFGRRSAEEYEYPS

As for `CSCC[C@H](NC(=O)[C@H](Cc1ccc(OS(=O)(=O)O)cc1)NC(=O)[C@@H](N)CC(=O)O)C(=O)NCC(=O)N[C@@H](Cc1c[nH]c2ccccc12)C(=O)N[C@@H](CCSC)C(=O)N[C@@H](CC(=O)O)C(=O)N[C@@H](Cc1ccccc1)C(N)=O` [CCK-8, cholecystokinin-8], the “IP1 formation (fold difference over baseline)” value is given as 0.09 fold difference over baseline in data set [1] (CCK-8 at 1 nM) and 0.31 fold difference over baseline in data set [1] (CCK-8 at 3 nM). Besides, the EC50 – broadly, the concentration that produces a half-maximal response – in data set [1] (EC50 of CCK-8 alone, CCK-8 alone, Fig. 5b experiment, n = 3) worked out at 12.9 nM; in data set [1] (SD) it was 11.5 ± 1.5 nM. The maximal response (Emax) (commonly the size of the effect at its maximum, as opposed to the concentration needed) in data set [1] came to 100%.
`CC(C)Oc1cccc(-n2c(CCc3c[nH]c4ccc(Br)cc34)nc3ccccc3c2=O)c1` [LY225910]: the “Antagonism of CCK-8-induced IP1 formation” value in data set [1] is listed as “did not displace the effects of endogenous ligand CCK-8”.
`Cc1cccc(NC(=O)N[C@@H]2N=C(c3ccccc3)c3ccccc3N(CC(=O)c3ccccc3C)C2=O)c1` [YM-022, (R)-1-[2,3-dihydro-1-(2'-methylphenacyl)-2-oxo-5-phenyl-1H-1,4-benzodiazepin-3-yl]-3-(3-methylphenyl) urea]: the “Antagonism of CCK-8-induced IP1 formation” value in data set [1] is given as “significant inhibition of the IP1 formation”.
For the molecule `CC[C@H](C)[C@@H]1NC(=O)[C@@H]2CSSC[C@@H]3NC(=O)[C@H](C(C)C)NC(=O)[C@H](CCCCN)NC(=O)[C@H](CCCCN)NC(=O)[C@H](CCCCN)NC(=O)[C@@H]4CSSC[C@H](NC(=O)[C@H](CO)NC(=O)[C@H](CCC(=O)O)NC(=O)CNC(=O)[C@H](CSSC[C@H](NC(=O)CNC(=O)[C@H]([C@@H](C)CC)NC(=O)[C@H](C(C)C)NC(=O)[C@H]([C@@H](C)O)NC(=O)[C@H](CO)NC1=O)C(=O)N[C@@H](CO)C(=O)N4)NC(=O)[C@@H]1CCCN1C(=O)[C@H]([C@@H](C)CC)NC(=O)[C@H](C(C)C)NC(=O)CNC(=O)[C@H](CC(N)=O)NC(=O)[C@H](CCCNC(=N)N)NC(=O)[C@H](Cc1ccc(O)cc1)NC3=O)C(=O)N[C@@H](C(C)C)C(=O)N[C@@H](Cc1ccccc1)C(=O)N[C@@H]([C@@H](C)CC)C(=O)N1CCC[C@H]1C(=O)N2` [caripe 11] (cyclo(CGESCVFIPCISTVIGCSCKKKVCYRNGVIP); disulfide 1-17, 5-19, 10-24), the “Effect on HEK cell viability” value is recorded as “slightly decreased HEK cell viability” in data set [2] (caripe 11 100 µM) and “did not have a pronounced effect” in data set [2] (caripe 11 ≤ 30 µM). For the same molecule, the maximal response (Emax) in data set [1] (SD) is 71 ± 6.9%. This molecule also registered an EC50 in data set [1] (SD) of 8500 ± 1700 nM. For the same molecule, in data set [1] (caripe 11 30 µM co-incubated with CCK-8 70 nM (EC80), Fig. S1a, n = 2), the “Reduction of the EC80 effect of CCK-8” value is given as ~ 20%. The “Basal activity of the CCK-8 concentration-response curve upon co-treatment” value in data set [1] (co-treatment with caripe 11 10 µM, increased from 0, Fig. 5b, n = 3) is 17%.
For “cholecystokinin-8 (from UniProt P06307 96-103) (peptide)”, in data set [3], the EC50 of IP1 accumulation, CCK-8 alone (control curve of the co-treatment experiment, Fig. 5b) worked out at 12.9 nM.
In data set [4], cyclo(GVIPCGESCVFIPCISTVIGCSCKKKVCYRN) (also: three disulfide bonds, pairing not given here) [caripe 11] showed an EC50 of IP1 accumulation (HTRF) in HEK293 cells transiently expressing CCK2R of 8500 nM and an Emax of IP1 accumulation, normalised to the maximal response of CCK-8 of 71%. Moreover, the reduction of the IP1 effect of 70 nM (EC80) CCK-8 by co-incubated caripe 11 (3, 10, 30 µM); value at 30 µM in data set [3] worked out at 20%.
